Measured values as given in patent US20250032581A1, “COMPOSITIONS AND ARTICLES COMPRISING AN ADNF POLYPEPTIDE” (RAMOT AT TEL-AVIV UNIVERSITY LTD., priority 2021, published 2025).

What was measured:
Tyr mice [1] = experiment: Visual evoked potentials (VEP); format: in vivo, mouse; design: key to NAP efficacy: visual evoked potential/axonal transport: corrections by NAP treatment (+)
Method: VEP—5.72±0.52-week-old male mice were used for VEP measurements. Animals were treated for 3 days with 0.1 ml S.C saline, recorded, and then followed by 4 daily S.C doses of either 1 μg NAP (in 0.1 ml saline) or 0.1 ml saline followed by another VEP recording.

[2] = adult patients; cited from earlier work
Tau, tubulin = experiment: Polymerized vs. soluble tubulin assay; format: cell-based, mouse; conditions: zinc 400 μM, 4 h, peptide 10^−12M
Method: Polymerized vs. soluble tubulin assay—To quantify tubulin polymerization and Tau-MT association, a simple assay was performed as previously described. The cells grown to confluence in six-well plates were washed with MT buffer (80 mM PIPES pH 6.8, 1 mM MgCl^2, 2 mM EGTA, 5% Glycerol) and lysed at room temperature for 5 min through centrifugation (300 g), with 150 μl of MT buffer with 0.5% Triton X-100 to extract soluble (cytosolic) tubulin (S). The pelleted cells were rinsed once again with an equal volume of modified RIPA lysis buffer (50 mM Tris-HCL pH 7.4, 150 mM NaCl, 2 mM EGTA, 1% Triton X-100, 0. 1% SDS, 0.1% sodium Deoxycholate) to collect the polymerized (cytoskeletal) tubulin (P). The cytosolic and cytoskeletal fractions were each mixed with sample buffer and heated at 95° C. for 5 min. An equal volume of each fraction was analyzed by immunoblotting with Tau, tubulin and actin antibodies, and the results following ECL development were quantified by densitometry (GelQuant.NET software provided by biochemlabsolutions(dot)com).
It is known that in the presence of extracellular zinc NAP protects MT against degradation by promoting Tau binding to the MT shaft. Polymerized vs. soluble tubulin assay was effected to compare protective activities of NAP and SKIP against MT degradation and Tau-MT dissociation (FIGS. 11F-G). After treatments with zinc (400 μM, 4 h) with and without NAP or SKIP (10^−12M, 4 h) the cellular-tubulin pool was separated into polymerized and soluble tubulin fractions. The amount of Tau, tubulin, and actin was identified by immunoblotting (FIG. 11F), followed by densitometric quantification (FIG. 11G).

Tyr mice [3] = experiment: RNA seq of mouse spleens; format: in vivo
Method: RNA seq—Total RNA was extracted from 14-week-old mouse spleens and sequenced using standard methods on NextSeq500 system (Illumina) as detailed. Data were analyzed as previously described (9).

Tyr mice [4] = experiment: Developmental milestone assessment, weight and length of Tyr mouse pups; format: in vivo
Method: Animals—Animals were housed under a 12-hour light/dark cycle, with food and water ad-libitum. Mouse pups were subcutaneously administrated with NAP [having an amino acid sequence NAPVSIPQ (SEQ ID NO: 2), 25 μg NAP/1 ml saline] as described (8, 12). At 21 days of age mice were administered daily intranasal NAP in vehicle solution (“DD”—7.5 mg/ml of NaCl, 1.7 mg/ml of citric acid, 3 mg/ml of disodium phosphate dihydrate, and 0.2 mg/ml of 50% benzalkonium chloride solution) (0.5 μg NAP/5p1 DD) (8, 9, 12, and U.S. Pat. No. 10,912,819 to Gozes). These mice continued to behavioral analysis as described hereinbelow. The noninvasive intranasal route was chosen as these experiments required daily handling and administration. Age (weeks) of mice during behavioral experiments (mean±SEM) was as follows: Catwalk—9.23±0.15, grooming—10±0.15, social approach—10.5±0.12, odor-discrimination—12.12±0.13, hanging-wire—13±0.14, hotplate—13.18±0.13. Group size was determined following previous experiments (12). Pups were randomly allocated to either the NAP or DD group according to sex and genotype. All procedures involving animals were conducted under the supervision and approval of the institutional animal care and use committee of Tel Aviv University and the Israeli Ministry of Health.
Developmental milestone assessment and fostering—This experiment included animals from 16 litters in 2 experimental batches. It was performed as previously described (12) with slight modifications. Experimenters were blinded to sex and genotype during experimental procedures. Sexes were grouped if no statistically significant sex differences were discovered.
Additional behavioral assessments— • Fostering: To enable daily handling necessary for developmental milestone assessment and drug treatment, Tyr pups were fostered by ICR females which are known to be excellent dams. Tyr pups were moved after birth to an ICR female mouse who gave birth up to 48 hours prior. ICR litter was culled according to the number of Tyr pups that were added. One day afterwards the remaining ICR pups were euthanized so only Tyr pups were left in the litter. • Pup litter distribution analysis: The genotyping results at p1 after placement with the foster mother was used for this measurement. […] The same day pups were randomized to either NAP or Saline treatment groups according to genotype and sex results and developmental milestone assessment was performed from p1 to p21. As animal randomization ended up with unequal male/female ratios for certain groups and no statistical differences were found between the sexes in any of the 4 treatment groups (T test), the sexes […], [That is except for eye opening, where a significant difference was observed between the sexes in the Tyr group (P=0.047, no significance in the other three treatment groups)]. Pup paws were tattooed using a 31-gauge needle and tattoo ink (Ketchum Manufacturing Co., catalog 329AA) for identification on P1 and, until P21, underwent daily measurements for length and weight and observation for eye opening. Pups were injected daily with NAP, 1 hour prior to the tests as previously described^1.
Briefly, for ear twitch reflex, a cotton tip was gently brushed against the tip of the ear three times, between postnatal days 7-15 or until the pup responded correctly for two consecutive days. For air righting reflex, the pup was held up-side down and released ˜10.5 cm above the cage, containing 5 cm of shavings. The test was performed between postnatal days 8-21 or until the pup landed on the shavings with all four paws, for two consecutive days. For surface righting reflex, pups were placed on their backs on a level surface, the test was performed between postnatal days 1-13 until the pups was able to right itself with all four paws on the surface in under a second for two consecutive days. For eye opening, mice were observed daily until both eyes were open (eyelids separated completely). […]

CC[C@H](C)[C@H](NC(=O)[C@H](CO)NC(=O)[C@@H](NC(=O)[C@@H]1CCCN1C(=O)[C@H](C)NC(=O)[C@@H](N)CC(N)=O)C(C)C)C(=O)N1CCC[C@H]1C(=O)N[C@@H](CCC(N)=O)C(=O)O [NAP, NAPVSIPQ]
VEP P3 AUC (Tyr mice [1]; Tyr males): significant NAP effect seen in the 300 and 3000 mcd intensities | NAP efficacy: visual evoked potential/axonal transport (Tyr mice [1]; Tyr mouse (first symbol)): +/+ | efficacy in clinical studies [2]: enhancement of cognitive function and functional activities of daily living | protection against Tau dissociation from MTs (soluble Tau ratio) (Tau, tubulin): only NAP exhibited protection against Tau dissociation from MTs | protection of polymerized tubulin against zinc (Tau, tubulin): protected against zinc-induced decay | spleen gene expression converging on AKT1, nervous and reproductive systems development (Tyr mice [3]): corrected by NAP | rooting reflex (Tyr mice [4]; Tyr mice, data not shown): induced rooting in Tyr mice | surface-righting, first day of acquisition (Tyr mice [4]; Tyr pups, daily s.c. NAP, WT 8.69±0.42, Tyr 10.14±0.36): 8.81 ± 0.33 days | air-righting, first day of acquisition (Tyr mice [4]; Tyr pups, daily s.c. NAP, WT 12.96±0.28, Tyr 15.29±0.15): 14.63 ± 0.38 days | body weight (Tyr mice [4]; WT female mice, data not shown): no effect observed on WT female mice | eye opening (Tyr mice [4]; WT females, data not shown): no NAP effect was observed in WT females | developmental milestones (Tyr mice [4]; WT littermates, data not shown): no effect on WT littermates except for the cliff aversion response | eye opening (Tyr mice [4]; female Tyr mice, Tyr 16±0.37, WT 14.93±0.43): 14.78 ± 0.46 days | eye opening (Tyr mice [4]; males, data not shown): No genotype/NAP effect was observed on males
